We go through one compound from ChEMBL document CHEMBL5678818, “Discovery of potent SOS1 inhibitors that block RAS activation via disruption of the RAS-SOS1 interaction” (Proc Natl Acad Sci U S A, 2019).

The target in test [1] is T1, Ephrin type-B receptor 6 (Homo sapiens) (UniProt O15197).
T1 sequence (whole entry): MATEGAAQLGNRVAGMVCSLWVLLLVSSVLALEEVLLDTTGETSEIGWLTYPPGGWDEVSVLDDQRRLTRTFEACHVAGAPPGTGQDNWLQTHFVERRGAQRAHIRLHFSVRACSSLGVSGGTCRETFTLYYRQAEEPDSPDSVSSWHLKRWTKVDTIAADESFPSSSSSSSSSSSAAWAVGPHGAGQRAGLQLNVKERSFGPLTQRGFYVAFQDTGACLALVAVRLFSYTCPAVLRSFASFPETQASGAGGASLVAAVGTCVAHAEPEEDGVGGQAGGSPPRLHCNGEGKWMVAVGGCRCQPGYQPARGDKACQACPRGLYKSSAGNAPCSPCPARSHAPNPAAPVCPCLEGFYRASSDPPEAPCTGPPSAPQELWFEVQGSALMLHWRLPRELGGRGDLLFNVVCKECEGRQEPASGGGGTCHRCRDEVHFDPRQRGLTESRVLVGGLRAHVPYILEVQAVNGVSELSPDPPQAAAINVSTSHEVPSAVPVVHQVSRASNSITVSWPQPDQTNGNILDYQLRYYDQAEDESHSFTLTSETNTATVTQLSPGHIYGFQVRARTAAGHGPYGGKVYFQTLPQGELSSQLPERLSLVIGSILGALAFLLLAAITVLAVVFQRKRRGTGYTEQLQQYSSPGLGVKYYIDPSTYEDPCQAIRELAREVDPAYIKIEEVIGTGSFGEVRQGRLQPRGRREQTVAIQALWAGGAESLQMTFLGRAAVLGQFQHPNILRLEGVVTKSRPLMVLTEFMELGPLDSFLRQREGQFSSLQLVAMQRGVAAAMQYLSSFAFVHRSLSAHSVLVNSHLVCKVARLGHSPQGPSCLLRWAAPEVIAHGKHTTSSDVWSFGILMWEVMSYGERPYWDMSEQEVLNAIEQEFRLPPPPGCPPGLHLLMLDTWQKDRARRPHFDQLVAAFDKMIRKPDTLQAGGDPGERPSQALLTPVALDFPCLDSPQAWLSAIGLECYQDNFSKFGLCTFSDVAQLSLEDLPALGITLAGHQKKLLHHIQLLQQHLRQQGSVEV
Put plainly: Inhibition of EPHB6 (unknown origin) assessed as residual activity at 100 nM by KINOMEscan analysis relative to control.

Test [2] deals with Serine/threonine-protein kinase OSR1 (Homo sapiens) (UniProt O95747). Put plainly: Inhibition of OSR1 (unknown origin) assessed as residual activity at 100 nM by KINOMEscan analysis relative to control.
Serine/threonine-protein kinase OSR1 (Homo sapiens), sequence (O95747 whole entry, looked up): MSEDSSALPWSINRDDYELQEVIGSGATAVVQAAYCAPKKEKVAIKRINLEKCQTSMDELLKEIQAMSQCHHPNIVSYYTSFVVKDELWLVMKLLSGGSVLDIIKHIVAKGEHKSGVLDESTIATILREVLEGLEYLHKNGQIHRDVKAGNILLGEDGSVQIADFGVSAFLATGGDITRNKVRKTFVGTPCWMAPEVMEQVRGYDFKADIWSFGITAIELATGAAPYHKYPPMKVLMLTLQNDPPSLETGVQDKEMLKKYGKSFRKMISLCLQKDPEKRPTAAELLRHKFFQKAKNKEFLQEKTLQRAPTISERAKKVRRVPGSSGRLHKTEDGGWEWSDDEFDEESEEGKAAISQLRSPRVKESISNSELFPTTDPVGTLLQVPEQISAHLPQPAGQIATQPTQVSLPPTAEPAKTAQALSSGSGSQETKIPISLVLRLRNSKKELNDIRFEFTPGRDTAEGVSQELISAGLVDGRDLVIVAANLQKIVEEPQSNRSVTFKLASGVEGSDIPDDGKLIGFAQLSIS
The target of test [3] is Leukocyte tyrosine kinase receptor (Homo sapiens) (UniProt P29376). Put plainly: Inhibition of LTK (unknown origin) assessed as residual activity at 100 nM by KINOMEscan analysis relative to control.
Leukocyte tyrosine kinase receptor (Homo sapiens), sequence (P29376 whole entry): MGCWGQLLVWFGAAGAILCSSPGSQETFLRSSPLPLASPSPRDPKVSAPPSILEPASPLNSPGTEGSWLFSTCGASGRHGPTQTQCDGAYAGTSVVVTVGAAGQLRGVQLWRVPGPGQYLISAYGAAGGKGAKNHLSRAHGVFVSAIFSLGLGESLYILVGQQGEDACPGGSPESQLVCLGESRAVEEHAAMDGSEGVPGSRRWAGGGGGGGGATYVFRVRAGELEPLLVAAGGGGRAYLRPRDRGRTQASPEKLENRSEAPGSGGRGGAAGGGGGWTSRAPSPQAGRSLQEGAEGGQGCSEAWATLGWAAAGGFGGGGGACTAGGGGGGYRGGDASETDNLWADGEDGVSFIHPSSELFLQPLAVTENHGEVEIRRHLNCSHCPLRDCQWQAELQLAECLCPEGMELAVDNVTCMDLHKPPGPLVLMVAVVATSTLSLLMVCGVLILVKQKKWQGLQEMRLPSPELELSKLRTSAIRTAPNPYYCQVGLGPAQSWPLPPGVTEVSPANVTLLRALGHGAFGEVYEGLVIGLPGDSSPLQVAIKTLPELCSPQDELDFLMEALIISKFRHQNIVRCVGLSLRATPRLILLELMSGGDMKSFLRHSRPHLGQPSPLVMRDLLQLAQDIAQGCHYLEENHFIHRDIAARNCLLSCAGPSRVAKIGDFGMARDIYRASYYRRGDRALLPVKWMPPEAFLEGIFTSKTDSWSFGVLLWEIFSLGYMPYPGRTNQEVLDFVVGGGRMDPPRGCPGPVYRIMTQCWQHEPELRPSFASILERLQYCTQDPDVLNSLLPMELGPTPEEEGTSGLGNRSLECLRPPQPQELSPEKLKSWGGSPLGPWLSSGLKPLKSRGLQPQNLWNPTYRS
Test [4] concerns the target T2, Phosphatidylinositol 5-phosphate 4-kinase type-2 gamma (Homo sapiens) (UniProt Q8TBX8).
T2 sequence (whole entry): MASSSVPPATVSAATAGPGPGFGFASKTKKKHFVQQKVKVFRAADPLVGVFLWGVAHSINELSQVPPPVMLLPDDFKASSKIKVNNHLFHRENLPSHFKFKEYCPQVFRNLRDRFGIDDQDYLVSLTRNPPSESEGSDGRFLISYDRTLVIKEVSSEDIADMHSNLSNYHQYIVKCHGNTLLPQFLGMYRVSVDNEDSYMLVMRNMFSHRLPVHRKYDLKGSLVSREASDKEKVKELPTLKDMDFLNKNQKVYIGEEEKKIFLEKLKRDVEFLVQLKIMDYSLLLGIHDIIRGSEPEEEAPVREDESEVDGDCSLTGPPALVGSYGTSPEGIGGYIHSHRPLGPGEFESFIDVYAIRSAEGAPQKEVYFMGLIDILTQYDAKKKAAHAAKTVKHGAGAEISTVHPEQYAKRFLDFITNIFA
Put plainly: Inhibition of PIP5K2C (unknown origin) assessed as residual activity at 100 nM by KINOMEscan analysis relative to control.

For test [5], the target named is Cyclin-dependent kinase 9 (Homo sapiens) (UniProt P50750). Put plainly: Inhibition of CDK9 (unknown origin) assessed as residual activity at 100 nM by KINOMEscan analysis relative to control.
Cyclin-dependent kinase 9 (Homo sapiens), sequence (P50750 whole entry): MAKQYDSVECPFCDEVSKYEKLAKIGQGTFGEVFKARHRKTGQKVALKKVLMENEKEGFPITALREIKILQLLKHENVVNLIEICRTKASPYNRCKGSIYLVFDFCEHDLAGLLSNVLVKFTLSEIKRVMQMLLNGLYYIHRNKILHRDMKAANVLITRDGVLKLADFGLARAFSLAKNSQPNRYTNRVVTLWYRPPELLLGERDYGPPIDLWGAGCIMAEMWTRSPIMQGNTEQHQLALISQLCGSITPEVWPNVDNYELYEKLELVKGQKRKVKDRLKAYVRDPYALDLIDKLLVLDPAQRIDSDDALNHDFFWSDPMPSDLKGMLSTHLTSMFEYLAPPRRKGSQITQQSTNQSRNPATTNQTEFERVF
Test [6] concerns the target Serine/threonine-protein kinase PAK 4 (Homo sapiens) (UniProt O96013). Put plainly: Inhibition of PAK4 (unknown origin) assessed as residual activity at 100 nM by KINOMEscan analysis relative to control.
Test [7] deals with Casein kinase I isoform epsilon (Homo sapiens) (UniProt P49674). Put plainly: Inhibition of CSNK1E (unknown origin) assessed as residual activity at 100 nM by KINOMEscan analysis relative to control.
Casein kinase I isoform epsilon (Homo sapiens), sequence (P49674 whole entry, looked up, canonical isoform): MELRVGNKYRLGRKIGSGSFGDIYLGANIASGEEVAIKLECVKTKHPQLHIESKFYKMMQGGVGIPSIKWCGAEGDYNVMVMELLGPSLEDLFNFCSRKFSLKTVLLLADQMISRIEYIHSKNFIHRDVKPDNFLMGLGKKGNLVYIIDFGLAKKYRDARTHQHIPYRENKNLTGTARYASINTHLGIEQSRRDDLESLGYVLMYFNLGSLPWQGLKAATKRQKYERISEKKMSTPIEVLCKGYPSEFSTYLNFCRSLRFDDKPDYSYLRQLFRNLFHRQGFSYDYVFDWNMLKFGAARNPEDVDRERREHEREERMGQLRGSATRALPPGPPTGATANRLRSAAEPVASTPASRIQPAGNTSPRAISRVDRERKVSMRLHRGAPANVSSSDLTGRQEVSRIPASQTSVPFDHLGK
Test [8] concerns Tyrosine-protein kinase ABL1 (Homo sapiens), P00519 [F317I]. Put plainly: Inhibition of phosphorylated ABL1 F317I mutant (unknown origin) assessed as residual activity at 100 nM by KINOMEscan analysis relative to control.
Tyrosine-protein kinase ABL1 (Homo sapiens), P00519 [F317I], sequence (P00519 whole entry F317I): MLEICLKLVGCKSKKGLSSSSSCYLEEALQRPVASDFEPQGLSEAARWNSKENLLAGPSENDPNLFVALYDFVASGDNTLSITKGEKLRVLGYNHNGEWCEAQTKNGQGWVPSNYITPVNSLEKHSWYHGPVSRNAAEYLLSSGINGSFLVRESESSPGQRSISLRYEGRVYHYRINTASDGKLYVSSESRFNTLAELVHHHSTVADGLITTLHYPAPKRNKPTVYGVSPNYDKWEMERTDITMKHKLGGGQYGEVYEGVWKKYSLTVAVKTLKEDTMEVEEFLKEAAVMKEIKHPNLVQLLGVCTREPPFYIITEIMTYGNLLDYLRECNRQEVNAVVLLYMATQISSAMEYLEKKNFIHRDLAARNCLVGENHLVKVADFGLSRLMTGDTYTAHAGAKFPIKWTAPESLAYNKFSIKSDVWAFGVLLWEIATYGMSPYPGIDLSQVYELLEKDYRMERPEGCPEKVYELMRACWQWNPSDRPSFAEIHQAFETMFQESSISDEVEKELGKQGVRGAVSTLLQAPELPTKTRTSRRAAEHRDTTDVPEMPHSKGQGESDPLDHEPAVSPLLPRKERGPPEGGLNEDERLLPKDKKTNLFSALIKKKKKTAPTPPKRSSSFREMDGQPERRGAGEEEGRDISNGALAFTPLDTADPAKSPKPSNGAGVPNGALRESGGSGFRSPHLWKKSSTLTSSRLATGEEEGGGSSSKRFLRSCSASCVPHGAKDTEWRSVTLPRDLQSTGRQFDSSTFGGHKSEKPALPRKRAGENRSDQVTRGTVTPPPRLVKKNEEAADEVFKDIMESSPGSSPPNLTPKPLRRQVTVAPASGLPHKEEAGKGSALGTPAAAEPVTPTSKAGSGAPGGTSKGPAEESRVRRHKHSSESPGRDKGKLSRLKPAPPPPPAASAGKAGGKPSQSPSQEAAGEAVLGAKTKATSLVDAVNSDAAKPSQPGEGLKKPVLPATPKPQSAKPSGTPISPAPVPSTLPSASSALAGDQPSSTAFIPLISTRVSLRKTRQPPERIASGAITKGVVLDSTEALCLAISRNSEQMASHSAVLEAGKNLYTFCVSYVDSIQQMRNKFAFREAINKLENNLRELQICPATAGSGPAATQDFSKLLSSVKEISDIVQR
Test [9] addresses Mitogen-activated protein kinase kinase kinase 20 (Homo sapiens) (UniProt Q9NYL2). Put plainly: Inhibition of ZAK (unknown origin) assessed as residual activity at 100 nM by KINOMEscan analysis relative to control.
The target of test [10] is T3, Rhodopsin kinase GRK1 (Homo sapiens) (UniProt Q15835).
T3 sequence (whole entry): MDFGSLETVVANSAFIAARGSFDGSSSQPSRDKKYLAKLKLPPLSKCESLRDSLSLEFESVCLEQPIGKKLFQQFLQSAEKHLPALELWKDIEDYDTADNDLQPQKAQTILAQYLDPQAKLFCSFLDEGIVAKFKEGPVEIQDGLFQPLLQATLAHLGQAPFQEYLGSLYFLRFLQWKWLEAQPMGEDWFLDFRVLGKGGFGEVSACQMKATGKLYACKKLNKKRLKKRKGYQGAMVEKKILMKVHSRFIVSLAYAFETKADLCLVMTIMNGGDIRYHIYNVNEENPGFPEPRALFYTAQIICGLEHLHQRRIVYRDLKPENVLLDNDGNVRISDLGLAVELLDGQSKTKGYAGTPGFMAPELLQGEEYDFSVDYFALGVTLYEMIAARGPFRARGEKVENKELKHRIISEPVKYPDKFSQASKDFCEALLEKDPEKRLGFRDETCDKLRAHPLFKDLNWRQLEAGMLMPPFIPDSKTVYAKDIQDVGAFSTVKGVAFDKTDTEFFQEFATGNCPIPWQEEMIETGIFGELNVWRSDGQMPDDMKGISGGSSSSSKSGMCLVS
Put plainly: Inhibition of GRK1 (unknown origin) assessed as residual activity at 100 nM by KINOMEscan analysis relative to control.

Mitogen-activated protein kinase kinase kinase 20 (Homo sapiens), sequence (Q9NYL2 2-800 limits assumed): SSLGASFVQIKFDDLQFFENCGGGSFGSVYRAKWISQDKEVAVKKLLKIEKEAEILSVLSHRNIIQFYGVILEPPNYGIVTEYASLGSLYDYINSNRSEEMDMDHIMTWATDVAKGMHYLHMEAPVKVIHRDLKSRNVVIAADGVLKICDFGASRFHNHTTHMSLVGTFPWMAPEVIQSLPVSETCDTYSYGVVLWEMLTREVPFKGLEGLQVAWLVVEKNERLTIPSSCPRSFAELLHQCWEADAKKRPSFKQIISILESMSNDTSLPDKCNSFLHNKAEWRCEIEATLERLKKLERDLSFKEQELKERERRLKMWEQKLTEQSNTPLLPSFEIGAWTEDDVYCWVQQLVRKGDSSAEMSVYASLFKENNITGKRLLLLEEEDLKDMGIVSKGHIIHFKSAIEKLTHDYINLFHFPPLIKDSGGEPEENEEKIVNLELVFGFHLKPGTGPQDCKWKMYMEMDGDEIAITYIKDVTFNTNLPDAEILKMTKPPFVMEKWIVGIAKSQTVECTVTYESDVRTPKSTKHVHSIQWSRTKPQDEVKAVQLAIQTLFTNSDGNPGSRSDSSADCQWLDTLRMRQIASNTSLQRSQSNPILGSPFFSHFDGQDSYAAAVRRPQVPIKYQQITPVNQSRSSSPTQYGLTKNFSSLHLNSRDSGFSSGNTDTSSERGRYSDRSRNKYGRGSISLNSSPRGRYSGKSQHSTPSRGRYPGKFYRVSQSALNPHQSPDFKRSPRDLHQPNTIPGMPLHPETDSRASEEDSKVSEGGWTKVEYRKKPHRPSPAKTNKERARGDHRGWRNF
Serine/threonine-protein kinase PAK 4 (Homo sapiens), sequence (O96013 whole entry, looked up, canonical isoform): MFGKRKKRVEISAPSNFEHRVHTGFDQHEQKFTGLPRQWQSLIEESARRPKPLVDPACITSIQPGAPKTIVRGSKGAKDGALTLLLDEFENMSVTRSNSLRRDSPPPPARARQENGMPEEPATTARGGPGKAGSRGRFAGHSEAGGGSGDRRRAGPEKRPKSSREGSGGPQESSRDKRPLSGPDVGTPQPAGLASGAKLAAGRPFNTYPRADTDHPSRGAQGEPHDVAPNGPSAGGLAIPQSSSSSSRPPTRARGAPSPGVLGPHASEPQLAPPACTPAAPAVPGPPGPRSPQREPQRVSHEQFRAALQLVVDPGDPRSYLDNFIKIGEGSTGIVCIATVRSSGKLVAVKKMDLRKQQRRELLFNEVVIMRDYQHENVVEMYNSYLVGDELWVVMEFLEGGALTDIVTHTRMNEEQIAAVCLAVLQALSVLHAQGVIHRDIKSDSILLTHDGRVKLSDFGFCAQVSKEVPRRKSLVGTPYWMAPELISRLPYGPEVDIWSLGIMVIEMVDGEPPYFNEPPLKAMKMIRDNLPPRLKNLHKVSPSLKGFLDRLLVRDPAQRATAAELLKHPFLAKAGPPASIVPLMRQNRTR

In the case of `COc1cc2ncnc(N[C@H](C)c3cccc4ccccc34)c2cc1OC`, the Activity in test [1] was 77%; in test [2], 89%; in [3], 97%; in test [4], 96%; in test [5], 89%; in test [6] it was 87%. For the same compound, the Activity in [7] was 97%; in test [8], 91%; in test [9] it was 51%; in test [10] it was 96%.
